Data on 1 molecule can be found in article PMC9719519, “Non-classical ferroptosis inhibition by a small molecule targeting PHB2” (Nature Communications, 2022).

What all share (experiment): biochemical
Parameters in all cases: Eurofins recombinant human kinase profiling, remaining kinase activity as % of control, 10 uM ATP
Common to all, as to conditions: ATP 10 uM; read-out: %Ctrl@10 μM

One experiment has as its target T1, ALK1(h) (Homo sapiens, UniProt P37023).
T1 construct: gene ACVRL1
A digest of the protocol: (§1)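 Recombinant human kinases, 401 in total, screened using an outsourced kinase profiling assay.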

In the next experiment the target is T2, ARK5(h) (Homo sapiens, UniProt O60285).
T2 construct: gene NUAK1
A digest of the protocol: as §1

The target in the next experiment is T3, BIKe(h) (Homo sapiens, UniProt Q9NSY1).
T3 construct: gene BMP2K
In short, it runs like this: as §1

The target of the next experiment is CDK13/cyclinK(h) (Homo sapiens, UniProt Q14004). In short, it runs like this:
as §1

A further experiment deals with CDK3/cyclinE(h) (Homo sapiens, UniProt Q00526). A digest of the protocol: as §1
Another experiment deals with T4, CK1ε(h) (Homo sapiens, UniProt P49674).
T4 construct: gene CSNK1E
A digest of the protocol: as §1

Another experiment has as its target T5, CaMKIß(h) (Homo sapiens, UniProt Q6P2M8).
T5 construct: gene PNCK
In short, it runs like this:
as §1

A further experiment addresses EphA1(h) (Homo sapiens, UniProt P21709). In short, it runs like this:
as §1

Another experiment concerns the target T6, Fms(Y969C)(h) (Homo sapiens, UniProt P07333, Y969C).
T6 construct: gene CSF1R
In short, it runs like this: as §1

A further experiment has as its target T7, IGF-1R(h) (Homo sapiens, UniProt P08069).
T7 construct: gene IGF1R
A digest of the protocol:
as §1

Another experiment has as its target T8, JNK1α1(h) (Homo sapiens, UniProt P45983).
T8 construct: gene MAPK8; isoform alpha1
A digest of the protocol:
as §1

The target in another experiment is T9, LOK(h) (Homo sapiens, UniProt O94804).
T9 construct: gene STK10
A digest of the protocol:
as §1

The next experiment deals with MAP4K5(h) (Homo sapiens, UniProt Q9Y4K4). A digest of the protocol:
as §1

The target of another experiment is T10, Mer(h) (Homo sapiens, UniProt Q12866).
T10 construct: gene MERTK
In short, it runs like this:
as §1

For another experiment, the target named is Met(h) (Homo sapiens, UniProt P08581). In short, it runs like this:
as §1

In a further experiment the target is NEK6(h) (Homo sapiens, UniProt Q9HC98). A digest of the protocol:
as §1

A further experiment addresses T11, PDHK4(h) (Homo sapiens, UniProt Q16654).
T11 construct: gene PDK4
In short, it runs like this: as §1

The target of experiment [1] is T12, PI3 Kinase (p110(E545K)/p85)(h) (Homo sapiens, UniProt P42336, E545K).
T12 construct: gene PIK3CA
A digest of the protocol:
as §1

In the next experiment the target is TGFBR1(h) (Homo sapiens, UniProt P36897). In short, it runs like this:
as §1

Another experiment addresses T13, TSSK1(h) (Homo sapiens, UniProt Q9BXA7).
T13 construct: gene TSSK1B
In short, it runs like this: as §1

Another experiment concerns the target TSSK4(h) (Homo sapiens, UniProt Q6SA08). In short, it runs like this:
as §1

A further experiment has as its target Wee1(h) (Homo sapiens, UniProt P30291). In short, it runs like this:
as §1

Chain of NEK6(h) (Q9HC98 whole entry): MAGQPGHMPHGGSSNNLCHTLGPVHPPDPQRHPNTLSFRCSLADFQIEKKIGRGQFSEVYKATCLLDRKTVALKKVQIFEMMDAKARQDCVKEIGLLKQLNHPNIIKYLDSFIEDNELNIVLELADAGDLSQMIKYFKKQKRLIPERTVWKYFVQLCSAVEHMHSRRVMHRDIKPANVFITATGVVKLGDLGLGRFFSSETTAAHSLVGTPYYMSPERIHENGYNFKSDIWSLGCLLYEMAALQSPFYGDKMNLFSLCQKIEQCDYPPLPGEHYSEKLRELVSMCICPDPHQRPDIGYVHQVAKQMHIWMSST
Chain of EphA1(h) (P21709 whole entry): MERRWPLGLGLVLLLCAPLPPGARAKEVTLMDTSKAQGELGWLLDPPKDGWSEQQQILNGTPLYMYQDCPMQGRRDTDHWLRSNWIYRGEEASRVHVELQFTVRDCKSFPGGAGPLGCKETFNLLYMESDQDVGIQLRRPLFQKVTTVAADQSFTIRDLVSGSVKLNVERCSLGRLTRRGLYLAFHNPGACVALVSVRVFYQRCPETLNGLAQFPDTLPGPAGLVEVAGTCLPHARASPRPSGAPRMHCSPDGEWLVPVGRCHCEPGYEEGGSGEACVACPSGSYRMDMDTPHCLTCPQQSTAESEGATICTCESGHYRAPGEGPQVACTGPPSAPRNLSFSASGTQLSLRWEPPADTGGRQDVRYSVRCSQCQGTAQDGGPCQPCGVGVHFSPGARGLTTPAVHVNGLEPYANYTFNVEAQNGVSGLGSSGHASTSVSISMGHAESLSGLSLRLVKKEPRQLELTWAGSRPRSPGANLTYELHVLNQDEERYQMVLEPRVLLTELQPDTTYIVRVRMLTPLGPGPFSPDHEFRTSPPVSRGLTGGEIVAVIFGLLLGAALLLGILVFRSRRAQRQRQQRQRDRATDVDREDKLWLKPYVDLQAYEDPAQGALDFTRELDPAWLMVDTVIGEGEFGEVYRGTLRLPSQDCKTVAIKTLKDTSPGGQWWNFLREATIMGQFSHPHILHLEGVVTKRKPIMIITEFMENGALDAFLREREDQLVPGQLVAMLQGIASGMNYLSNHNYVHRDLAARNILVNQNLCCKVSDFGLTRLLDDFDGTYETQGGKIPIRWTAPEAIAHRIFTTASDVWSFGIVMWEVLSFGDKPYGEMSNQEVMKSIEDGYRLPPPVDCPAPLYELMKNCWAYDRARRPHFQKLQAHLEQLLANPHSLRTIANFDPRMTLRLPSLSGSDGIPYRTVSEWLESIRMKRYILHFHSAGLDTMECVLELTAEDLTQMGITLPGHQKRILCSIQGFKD
T13 sequence (Q9BXA7 whole entry): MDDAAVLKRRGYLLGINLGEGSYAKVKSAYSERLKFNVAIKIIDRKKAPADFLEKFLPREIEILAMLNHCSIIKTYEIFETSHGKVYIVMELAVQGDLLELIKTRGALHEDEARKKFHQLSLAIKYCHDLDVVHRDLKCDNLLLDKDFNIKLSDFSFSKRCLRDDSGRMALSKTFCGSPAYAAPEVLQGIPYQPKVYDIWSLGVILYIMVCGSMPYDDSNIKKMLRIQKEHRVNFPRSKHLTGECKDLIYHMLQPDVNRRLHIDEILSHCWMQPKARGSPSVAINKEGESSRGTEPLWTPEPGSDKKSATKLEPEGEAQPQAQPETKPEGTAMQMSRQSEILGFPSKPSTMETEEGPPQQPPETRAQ
Chain of CDK13/cyclinK(h) (Q14004 whole entry): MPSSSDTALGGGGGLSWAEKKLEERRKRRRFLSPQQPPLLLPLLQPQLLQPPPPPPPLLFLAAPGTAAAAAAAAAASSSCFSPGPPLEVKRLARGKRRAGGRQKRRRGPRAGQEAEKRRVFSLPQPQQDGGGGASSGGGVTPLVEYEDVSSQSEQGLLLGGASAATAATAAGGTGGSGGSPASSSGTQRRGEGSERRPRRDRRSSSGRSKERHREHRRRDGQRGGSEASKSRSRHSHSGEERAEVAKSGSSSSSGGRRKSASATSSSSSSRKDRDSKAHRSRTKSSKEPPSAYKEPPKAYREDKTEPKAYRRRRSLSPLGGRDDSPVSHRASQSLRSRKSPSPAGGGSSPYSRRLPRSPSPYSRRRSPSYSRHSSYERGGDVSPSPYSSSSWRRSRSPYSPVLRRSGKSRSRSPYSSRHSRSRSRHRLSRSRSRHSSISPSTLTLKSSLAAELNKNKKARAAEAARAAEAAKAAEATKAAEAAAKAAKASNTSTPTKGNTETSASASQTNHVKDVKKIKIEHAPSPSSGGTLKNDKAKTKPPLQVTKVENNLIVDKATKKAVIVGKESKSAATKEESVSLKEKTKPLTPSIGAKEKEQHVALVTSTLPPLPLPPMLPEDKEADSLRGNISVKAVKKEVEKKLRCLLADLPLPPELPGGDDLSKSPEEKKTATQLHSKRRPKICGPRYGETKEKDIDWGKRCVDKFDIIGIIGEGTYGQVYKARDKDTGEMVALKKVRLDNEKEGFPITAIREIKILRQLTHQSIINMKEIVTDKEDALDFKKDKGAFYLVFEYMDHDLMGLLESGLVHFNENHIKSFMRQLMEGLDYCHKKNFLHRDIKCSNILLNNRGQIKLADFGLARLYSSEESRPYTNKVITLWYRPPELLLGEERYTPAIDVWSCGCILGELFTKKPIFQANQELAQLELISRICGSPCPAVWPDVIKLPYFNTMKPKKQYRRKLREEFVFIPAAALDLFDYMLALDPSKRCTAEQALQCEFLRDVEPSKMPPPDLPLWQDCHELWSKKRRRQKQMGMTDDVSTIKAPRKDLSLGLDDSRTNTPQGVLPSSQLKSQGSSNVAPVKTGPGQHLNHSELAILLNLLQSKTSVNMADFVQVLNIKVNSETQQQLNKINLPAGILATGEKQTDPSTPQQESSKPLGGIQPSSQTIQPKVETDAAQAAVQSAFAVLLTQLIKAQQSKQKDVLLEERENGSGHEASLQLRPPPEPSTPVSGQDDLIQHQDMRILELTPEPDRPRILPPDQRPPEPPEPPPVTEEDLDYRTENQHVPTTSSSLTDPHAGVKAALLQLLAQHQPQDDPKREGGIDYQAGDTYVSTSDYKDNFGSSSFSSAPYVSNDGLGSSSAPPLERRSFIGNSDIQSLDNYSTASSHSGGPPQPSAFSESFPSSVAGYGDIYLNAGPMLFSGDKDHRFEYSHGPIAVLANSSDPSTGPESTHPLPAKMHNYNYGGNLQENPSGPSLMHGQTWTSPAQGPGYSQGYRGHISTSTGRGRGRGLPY
Chain of CDK13/cyclinK(h) (O75909 whole entry partner): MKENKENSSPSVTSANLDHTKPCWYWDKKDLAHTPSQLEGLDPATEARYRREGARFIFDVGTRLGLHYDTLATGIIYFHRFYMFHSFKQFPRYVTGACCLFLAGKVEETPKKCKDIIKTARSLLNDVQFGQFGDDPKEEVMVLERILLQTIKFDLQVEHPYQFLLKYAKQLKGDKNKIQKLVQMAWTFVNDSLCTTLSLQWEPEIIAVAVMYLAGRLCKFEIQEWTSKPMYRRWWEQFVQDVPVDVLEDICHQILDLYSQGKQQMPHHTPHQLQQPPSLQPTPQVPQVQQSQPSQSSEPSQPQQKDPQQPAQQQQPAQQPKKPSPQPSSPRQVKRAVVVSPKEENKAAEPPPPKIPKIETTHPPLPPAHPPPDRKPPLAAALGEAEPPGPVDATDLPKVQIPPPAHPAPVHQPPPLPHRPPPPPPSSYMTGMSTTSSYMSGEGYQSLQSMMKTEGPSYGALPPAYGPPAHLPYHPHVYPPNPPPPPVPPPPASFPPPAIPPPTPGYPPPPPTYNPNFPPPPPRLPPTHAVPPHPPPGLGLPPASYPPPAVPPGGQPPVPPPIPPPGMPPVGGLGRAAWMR
Chain of TGFBR1(h) (P36897 whole entry): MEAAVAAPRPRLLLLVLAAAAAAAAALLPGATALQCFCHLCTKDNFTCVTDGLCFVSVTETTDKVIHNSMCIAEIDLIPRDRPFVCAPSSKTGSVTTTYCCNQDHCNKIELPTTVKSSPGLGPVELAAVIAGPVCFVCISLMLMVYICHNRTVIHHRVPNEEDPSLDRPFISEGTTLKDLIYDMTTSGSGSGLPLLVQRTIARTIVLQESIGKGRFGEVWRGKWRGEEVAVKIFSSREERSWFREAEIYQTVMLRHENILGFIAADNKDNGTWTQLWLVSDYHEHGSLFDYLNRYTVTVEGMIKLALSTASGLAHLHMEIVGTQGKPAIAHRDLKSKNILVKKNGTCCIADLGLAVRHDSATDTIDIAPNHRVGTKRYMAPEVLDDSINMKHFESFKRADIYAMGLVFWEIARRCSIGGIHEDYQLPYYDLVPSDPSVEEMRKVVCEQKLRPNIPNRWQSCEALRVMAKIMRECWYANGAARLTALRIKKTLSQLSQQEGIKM
Chain of Wee1(h) (P30291 whole entry): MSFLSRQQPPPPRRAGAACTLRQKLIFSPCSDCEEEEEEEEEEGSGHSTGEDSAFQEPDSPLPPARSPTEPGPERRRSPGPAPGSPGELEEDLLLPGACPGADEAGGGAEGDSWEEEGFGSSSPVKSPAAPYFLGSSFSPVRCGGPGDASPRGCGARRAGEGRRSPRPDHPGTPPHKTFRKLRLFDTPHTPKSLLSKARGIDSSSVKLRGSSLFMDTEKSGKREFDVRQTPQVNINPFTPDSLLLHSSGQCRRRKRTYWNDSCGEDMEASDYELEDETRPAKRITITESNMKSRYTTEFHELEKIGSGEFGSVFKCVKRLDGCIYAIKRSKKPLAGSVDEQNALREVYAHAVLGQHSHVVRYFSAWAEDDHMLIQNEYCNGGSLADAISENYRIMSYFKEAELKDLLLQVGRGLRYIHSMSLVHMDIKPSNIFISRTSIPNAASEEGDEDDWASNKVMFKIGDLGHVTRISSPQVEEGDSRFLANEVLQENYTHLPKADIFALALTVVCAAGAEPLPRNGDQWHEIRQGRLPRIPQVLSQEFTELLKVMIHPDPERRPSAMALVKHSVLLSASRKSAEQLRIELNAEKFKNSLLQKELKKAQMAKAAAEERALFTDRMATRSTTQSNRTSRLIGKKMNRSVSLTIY

Regarding `C1=C(c2nc(-c3cnn(C4CCNCC4)c3)cn3cc(-c4ccccc4)nc23)CCOC1` [YL-939], the remaining activity at 10 µM amounted to 94% on ALK1(h); 93% at ARK5(h); 115% on BIKe(h); 93% at CDK13/cyclinK(h); 102% at CDK3/cyclinE(h); 74% on CK1ε(h). Also, the remaining activity at 10 µM on CaMKIß(h) stood at 88%; on EphA1(h), 109%; at Fms(Y969C)(h), 107%; at IGF-1R(h) it was 82%; at JNK1α1(h), 109%; at LOK(h), 95%. Moreover, the remaining activity at 10 µM at MAP4K5(h) was 76%; on Mer(h), 78%; at Met(h) it was 54%; on NEK6(h), 97%; at PDHK4(h), 109%; in [1] it was 95%. Further, the remaining activity at 10 µM at TGFBR1(h) amounted to 101%; at TSSK1(h), 80%; at TSSK4(h) it was 97%; on Wee1(h), 99%.
